Measurements as given in PMC4937655 (Journal of Drug Assessment, 2013).
“Also recorded” adds a separate entry of the source. Read-outs that look alike come from different tables or passages of the source. Values belong to the compound of their own block, whether it stands above or below them.

Assays:
[1] = Effect of ticagrelor on ketoconazole steady-state plasma concentrations; format: in vivo, human; settings: for Plasma concentration, mean (% CV; range): ketoconazole 200 mg twice daily
Protocol: (§1) Both studies were single-center, randomized, open-label studies with a two-period, in-patient, crossover design. For both studies, a low non-loading dose of ticagrelor (i.e., a single oral dose of 90 mg) was selected, so if an interaction occurred between ticagrelor and the CYP3A4 inhibitor, then the increase in ticagrelor plasma concentrations would minimize any safety issues. […] The approved dosing regimen of ticagrelor is 180 mg loading dose followed by 90 mg twice daily thereafter3,4.
(§2) The limits of quantification (LOQ) for ticagrelor and AR-C124910XX were […], respectively28.
(§3) Plasma concentration–time data were used to calculate Cmax, time to maximum concentration (tmax), AUC, and the terminal elimination half-life (t½). The latter was calculated as 0.693/λz, where λz is the terminal phase elimination rate constant, derived by least-squares regression analysis of the plasma concentration–time data obtained over the terminal log-linear phase. AUC was calculated using the linear trapezoidal method and extrapolated to infinity. AR-C124910XX:ticagrelor ratios for Cmax and AUC were calculated.

CYP3A [2] = settings: cited from earlier work
[3] = Ticagrelor-diltiazem interaction study: pharmacokinetic parameters of ticagrelor and AR-C124910XX; settings: for Cmax: po
Protocol: as §1
(§4) Figure 1 depicts the overall study design for both studies. At the start of each study, volunteers were randomized to one of two treatments (A or B). After the washout period, volunteers received the alternate dosing regimen. On the scheduled day, ticagrelor was co-administered with the CYP3A4 inhibitor in the morning after fasting for ≥10 hours followed by a further fast for ≥4 hours. Water was permitted ad libitum throughout each period except for 2 hours before and after ticagrelor administration.
as §2, §3
(§5) Statistical analyses were conducted using SAS version 8 (SAS Institute, Cary, North Carolina, USA). Pharmacokinetic parameters were summarized by descriptive statistics. AUC and Cmax values for ticagrelor and AR-C124910XX were analyzed, following log-transformation, by analysis of variance with terms for treatment, period, and sequence, and the volunteer within sequence was included as a random effect. After exponentiation, geometric least square mean point estimates and 90% CIs for the ratio ticagrelor + CYP3A4 inhibitor/ticagrelor alone were calculated. The pre-specified limits for the 90% CI values indicating no interaction between ticagrelor and either CYP3A4 inhibitor were 0.7–1.43.

[4] = Ticagrelor-ketoconazole interaction study: pharmacokinetic parameters of ticagrelor and AR-C124910XX; settings: for Cmax: po
Protocol: as §1, §4, §2, §3, §5

[5] = design: method as in PMID 20091161; settings: single oral dose of ticagrelor 100 mg; healthy volunteers n = 9; cited from earlier work
platelet aggregation = system: platelet aggregation; design: method as in AstraZeneca, data on file; settings: ref AstraZeneca, data on file; cited from earlier work
[6] = design: method as in PMID 20551239, PMID 20091161, PMID 20642549, PMID 16476694, PMID 17980251; settings: cited from earlier work
[7] = Safety and tolerability, diltiazem study; format: in vivo, human
Protocol: (§6) Safety and tolerability of ticagrelor alone and in the presence of diltiazem or ketoconazole were evaluated by assessment of adverse events (AEs), vital signs, electrocardiographic (ECG), physical examination, and laboratory parameters (clinical chemistry, hematology, and urinalysis) throughout the studies.

[8] = Safety and tolerability, ketoconazole study; format: in vivo, human
Protocol: as §6

[9] = design: method as in PMID 16476694; settings: 28 days, cited from earlier work
[10] = cited from earlier work
CYP3A [11] = system: CYP3A; design: method as in PMID 21177984; settings: cited from earlier work; for Inhibition of CYP3A activity in vitro: in words
[12] = design: method as in PMID 19717846; settings: ticagrelor + aspirin compared with clopidogrel + aspirin; patients with ACS; cited from earlier work
P-glycoprotein = settings: ref 18 (AstraZeneca, data on file); cited from earlier work
[13] = cited from earlier work; remark: listed apart in the source
[14] = Effect of ticagrelor on diltiazem pharmacokinetic parameters; format: in vivo, human; settings: for Tmax: human, plasma, read-out: Median tmax (range); for Effect of ticagrelor on pharmacokinetic parameters: in words
[15] = diltiazem co-administration vs ticagrelor alone
[16] = ticagrelor + diltiazem/ticagrelor alone
[17] = ketoconazole co-administration vs ticagrelor alone
[18] = ticagrelor + ketoconazole/ticagrelor alone
[19] = single dose 900 mg, healthy volunteers n = 6

Compound: CC(=O)N1CCN(c2ccc(OCC3COC(Cn4ccnc4)(c4ccc(Cl)cc4Cl)O3)cc2)CC1 (stereo not drawn) [ketoconazole]
Effect of ticagrelor on steady-state plasma concentrations / pharmacokinetic parameters ([1]; in words): not significantly affected; also recorded: did not affect
Plasma concentration, mean (% CV; range) ([1]; 12 hours post-dosing with ticagrelor on day 4): 1271 (84;334–4150) ng/mL
Plasma concentration, mean (% CV; range) ([1]; pre-dosing on day 4, absence of ticagrelor): 1410 (73; 396–3540) ng/mL
CYP3A substrate status (CYP3A [2]): substrates for CYP3A
Classification as CYP3A inhibitor (CYP3A [2]): strong CYP3A inhibitor

Metabolite:parent AUC ratio ([3]; human, in vivo): 0.4 (39)
Metabolite:parent Cmax ratio ([3]; human, in vivo): 0.3 (36)
AUC ([3]; human, in vivo, 90 mg): 1630 (29) ng·h/mL
Tmax ([3]; human, in vivo, 90 mg): 3.0 (2.0–4.0) h
t½ ([3]; human, in vivo, 90 mg): 8.4 (1.3) h
Cmax ([3]; human, in vivo): 173 (38) ng/mL
Metabolite:parent AUC ratio ([4]; human, in vivo): 0.49 (24)
Metabolite:parent Cmax ratio ([4]; human, in vivo): 0.32 (22)
AUC ([4]; human, in vivo, 90 mg): 1769 (28) ng·h/mL
Tmax ([4]; human, in vivo, 90 mg): 2.0 (2.0–4.0) h
t½ ([4]; human, in vivo, 90 mg): 8.0 (6.3–16.7) h
Cmax ([4]; human, in vivo): 207 (29) ng/mL
Compound: CCCSc1nc(N[C@@H]2C[C@H]2c2ccc(F)c(F)c2)c2nnn([C@@H]3C[C@H](O)[C@@H](O)[C@H]3O)c2n1 [AR-C124910XX]
AUC, mean ± standard deviation [5]: 1460 ± 408 ng·h/mL
Potency in inhibiting platelet aggregation relative to ticagrelor (platelet aggregation): approximately equipotent
Metabolite level as share of the levels of ticagrelor [6]: 30–40%

Compound: CCCSc1nc(N[C@@H]2C[C@H]2c2ccc(F)c(F)c2)c2nnn([C@@H]3C[C@H](OCCO)[C@@H](O)[C@H]3O)c2n1 [Ticagrelor]
Increase in AUC [3, 15]: 174%
Increase in Cmax [3, 15]: 69%
Increase in half-life [3, 15]: 96%
AUC ([3]; human, plasma, oral, 90 mg): 3700 ng·h/mL
Tmax ([3]; human, plasma, oral, 90 mg): 2 h
half-life ([3]; human, plasma, oral, 90 mg): 8.3 h
Cmax ([3]; human, plasma, 90 mg): 519 ng/mL
Effect of diltiazem on median tmax ([3]; in words): unaffected
AUC GLS mean ratio: point estimate (90% CI) [3, 16]: 2.74 (2.40–3.13)
Cmax GLS mean ratio: point estimate (90% CI) [3, 16]: 1.69 (1.47–1.95)
Increase in AUC ([4]; co-administration of ketoconazole): ≥ 5 fold
AUC ([4]; human, plasma, oral, 90 mg): 3640 ng·h/mL
Tmax ([4]; human, plasma, oral, 90 mg): 2 h
half-life ([4]; human, plasma, oral, 90 mg): 7.1 h
Cmax ([4]; human, plasma, 90 mg): 654 ng/mL
Increase in AUC [4, 17]: 632%
Increase in Cmax [4, 17]: 135%
Half-life increased to (relative to ticagrelor alone) ([4]; presence of ketoconazole): approximately 362%
AUC GLS mean ratio: point estimate (90% CI) [4, 18]: 7.32 (6.43–8.34)
Cmax GLS mean ratio: point estimate (90% CI) [4, 18]: 2.35 (2.13–2.60)
Deaths or serious AEs ([7]; diltiazem study): No deaths or serious AEs
Bleeding events ([7]; in vivo): No such events
AEs reported ([7]; in vivo, po): No AEs
AEs ([8]; in vivo): five AEs
Deaths or serious AEs ([8]; ketoconazole study): No deaths or serious AEs
AUC, mean ± standard deviation [5]: 3683 ± 753 ng·h/mL
Mean AUC ([9]; 100 mg ticagrelor twice daily, CV 45%): 5337 ng·h/mL
Mean AUC ([9]; 200 mg ticagrelor twice daily, CV 39%): 15,104 ng·h/mL
Increase in exposure ([9]; 200 mg vs 100 mg twice daily): 283%
Total bleeding events: number of events (Kaplan–Meier event rates) ([10]; 90 mg twice daily, through week 4): 32 (9.8)
Total bleeding events: number of events (Kaplan–Meier event rates) ([10]; 90 mg twice daily, through week 12): 34 (10.9)
Mean AUC ± SD ([10]; 90 mg twice daily, week 4): 4762 ± 2443 ng·h/mL
Total bleeding events: number of events (Kaplan–Meier event rates) ([10]; 180 mg twice daily, through week 4): 25 (8.0)
Total bleeding events: number of events (Kaplan–Meier event rates) ([10]; 180 mg twice daily, through week 12): 33 (11.4)
Mean AUC ± SD ([10]; 180 mg twice daily, week 4): 13,198 ± 4982 ng·h/mL
Inhibition of platelet aggregation (IPA) ([10]; 180 mg vs 90 mg twice daily): dose-dependent increase
Increase in ticagrelor exposure ([10]; 180 mg vs 90 mg twice daily, week 4): 277%
Metabolism by CYP3A (CYP3A [11]; human liver microsomes / in vitro): principally metabolized by CYP3A; also recorded: substrate
Inhibition of CYP3A activity in vitro (CYP3A [11]): weak-to-moderate inhibitor
Inhibition of CYP3A activity in vitro (CYP3A [11]; listed as ticagrelor): weak inhibitor
Rate of myocardial infarction/stroke/death from vascular causes [12]: significantly reduced
P-glycoprotein substrate status (P-glycoprotein): substrate
Maximum tolerated single dose ([13]; healthy volunteers): 900 mg
AUC, mean [% CV] [13, 19]: 39,153 [38] ng·h/mL
Bleeding-related AEs [13, 19]: no bleeding-related AEs
Cmax, mean [% CV] [13, 19]: 5153 [42] ng/mL

Tmax ([14]; diltiazem + ticagrelor): 10 h
Tmax ([14]; diltiazem alone): 8 h
Effect of ticagrelor on pharmacokinetic parameters [14]: no effect; also recorded: did not affect
Effect of ticagrelor on pharmacokinetic parameters ([14]; listed as Diltiazem): not significantly affected
Compound: COc1ccc([C@@H]2Sc3ccccc3N(CCN(C)C)C(=O)[C@@H]2OC(C)=O)cc1 [diltiazem, Diltiazem]
Abnormal ECG evaluations of first-degree atria-ventricular block ([7]; in vivo): two volunteers
Systolic and diastolic blood pressure compared to baseline ([7]; in vivo): marginal decrease
